Measurements published in patent US9938316B2, “Selective inhibitors of α2 isoform of Na,K-ATPase and use thereof for reduction of intra-ocular pressure and as cardiotonic agents” (priority 2013, dated 2018).

Columns and labels:
[1] = tested on: purified α2β1FXYD1 complexes of Na,K-ATPase; assay: Dissociation of cardiac glycosides from the α2β1 isoform complex
Protocol: Since the principal isoform in NPE cells is α2 and dissociation from the pump is expected to affect the duration of the effects on IOP, the dissociation rates of different cardiac glycosides from the purified α2β1 isoform were compared.
Purified α2β1FXYD1 complexes (0.3-0.5 mg/ml) were incubated for 30 minutes at 37° C. in a medium containing ATP, 1 mM; NaCl 100 mM; MgCl2, 4 mM Histidine.HCl 25 mM pH 7.4 without (Control) or with 1 μM of different cardiac glycosides. The enzyme solutions were then diluted 100-fold into a medium containing 100 mM NaCl, 5 mM KCl, 1 mM EDTA (Tris), 0.005 mg/ml C12E8, 0.01 mg/ml SOPS, and 0.001 mg/ml cholesterol and incubated at 37° C. for different lengths of time. Aliquots were removed at different times and Na,K-ATPase activity was measured in triplicate over 0.5 minutes (digoxigenin) or 2 minutes (other cardiac glycosides) in the standard activity medium containing 200 μM ATP. The activity of test samples was divided by the activity of the control samples and the time-course for reversal of inhibition was analyzed by fitting the data to the function vt=v∞e^−kt+c. Normalized curves for comparison of different experiments (e.g. as in FIG. 9) were obtained by subtracting the constant value c from each value of the activity and re-fitting the ratio vt/v∞=1−e^−kt.

[2] = tested on: intra-ocular pressure (IOP) of rabbits; assay: 4-aminopyridine (4AP)-induced ocular hypertension in rabbits; assay type: in vivo, New Zealand white rabbits; conditions: for Effect on 4AP-induced rise in IOP: 1 drop topically 30 minutes prior to 4AP
Protocol: Intra-ocular pressure in rabbits was measured using of a “Reichert Model 30™ Pneumatonometer” after anesthetizing the cornea with local anesthetic.
Since the IOP reflects a balance of the inflow and outflow of aqueous humour, reduction of the increased 4AP-induced inflow of aqueous humour by cardiac glycosides should prevent the increase in IOP. Thus, the standard experimental design to test effects of cardiac glycosides involved topical application of the compounds (1 drop in each eye) 30 minutes prior to application of 4AP and measurement of IOP every 30 minutes over five hours. […] Each experiment was done three times, but the figures depict a representative experiment using a different rabbit for each concentration of the cardiac glycoside.
DGlyN or DMe (0.1 or 1 mM) were applied one hour after the first application of 4AP, which was added every two hours.
New Zealand white rabbits (3-3.5 kg) about 1 year old, of either sex, were housed individually in separate cages in animal room conditions on a reversed, 12-hour dark/light cycle. For the experiments the animals were transferred to rabbit restrainers in a quiet and calm atmosphere (FIG. 1). […] Animal care and treatment were subject to the approval of the institutional committee for animal experiments, Weizmann Institute IACUC permission (no 04270911-2).
IOP (mm Hg) of rabbits was measured using a calibrated Pneumatonometer (Model 30, Reichert technologies, FIG. 1). A local anesthetic Oxybuprocaine HCl (0.4%, 25 μl) was applied to each cornea about a minute before IOP measurements. Two baseline IOP readings were taken before topical administration of the CG (or PBS as control) and after half an hour (Zero time). […] At zero time one drop of 4AP (40 mg/ml, 30 μl) or IB-MECA (1 μM, 30 μl) was administered to both eyes of each rabbit IOP measurements were made at different times as indicated in each experiment. In the experiments for which the IOP was elevated for several hours, 4AP was added every […] or IB-MECA every 2 hours. […] In all cases the figures depict the average effect on IOP (i.e for four or six eyes) compared to control ±SEM. […] Significance of differences from the control was calculated by the unpaired Students t-test (p values), p values <0.05 were considered significant. Corneal thickness (μm) was measured using an ultrasonic pachymeter (Sonogage pachometer, Cleveland, USA), before and during the experiment with CG and 4AP treatments. The values represent averages of three independent measurements for each eye.

[3] = tested on: cornea of rabbits; assay: Pachymetry: corneal thickness and local toxicity after topical cardiac glycosides; assay type: in vivo, New Zealand white rabbits; conditions: rabbit, in vivo
Protocol: Thus, in this study, no change in corneal thickness was detected (Table 3), indicative of lack of local toxic effects. […] Similar results were obtained with CG's applied after IB-MECA.
IOP (mm Hg) of rabbits was measured using a calibrated Pneumatonometer (Model 30, Reichert technologies, FIG. 1). A local anesthetic Oxybuprocaine HCl (0.4%, 25 μl) was applied to each cornea about a minute before IOP measurements. Two baseline IOP readings were taken before topical administration of the CG (or PBS as control) and after half an hour (Zero time). […] At zero time one drop of 4AP (40 mg/ml, 30 μl) or IB-MECA (1 μM, 30 μl) was administered to both eyes of each rabbit IOP measurements were made at different times as indicated in each experiment. In the experiments for which the IOP was elevated for several hours, 4AP was added every 1.5 hours or IB-MECA every 2 hours. […] Each experiment was repeated two or three times with similar results. In all cases the figures depict the average effect on IOP (i.e for four or six eyes) compared to control ±SEM. Where error bars are not seen in the figures, the errors are smaller than the symbols used. Significance of differences from the control was calculated by the unpaired Students t-test (p values), p values <0.05 were considered significant. Corneal thickness (μm) was measured using an ultrasonic pachymeter (Sonogage pachometer, Cleveland, USA), before and during the experiment with CG and 4AP treatments. The values represent averages of three independent measurements for each eye.

[4] = tested on: Na,K-ATPase isoforms (α1β1, α2β1, α3β1); conditions: membranes; cited from earlier work

| Structure (SMILES) | t1/2 ± SEM (dissociation) [1] [min] | k ± SEM (rate of dissociation) ([1]; α2β1 isoform complex, 37° C.) | Effect on 4AP-induced rise in IOP ([2]; 0.25 mM) | Effect on 4AP-induced rise in IOP ([2]; 1 mM) | Time IOP is maintained at the low level ([2]; 1 mM, single drop, 4AP every two hours) [h] | Redness or local irritation in conjunctiva or cornea [3] | Isoform selectivity of KD (in words) [4] |
| --- | --- | --- | --- | --- | --- | --- | --- |
| C[C@H]1O[C@@H](O[C@H]2[C@@H](O)C[C@H](O[C@H]3[C@@H](O)C[C@H](O[C@H]4CC[C@@]5(C)[C@H](CC[C@@H]6[C@@H]5C[C@@H](O)[C@]5(C)[C@@H](C7=CC(=O)OC7)CC[C@]65O)C4)O[C@@H]3C)O[C@@H]2C)C[C@H](O)[C@@H]1O [Digoxin, digoxin, reference compound] | 47.5 ± 5.05 | 0.015 ± 0.001, 4 min^−1 | poorly effective | able to prevent the 4AP-induced rise in IOP | 1 | neither redness nor local irritation were observed |  |
| C[C@]12CC[C@H](O)C[C@H]1CC[C@@H]1[C@@H]2CC[C@]2(C)[C@@H](C3=CC(=O)OC3)CC[C@]12O [digitoxgenin] |  |  |  |  |  |  | no isoform selectivity |
